In brackets after ≈: the same amount, converted by molar mass.
Columns and labels:
[1] = system: Mycobacterium tuberculosis; assay: Antimycobacterial activity against Mycobacterium tuberculosis; type: functional
[2] = system: Mycobacterium tuberculosis; assay: Antimycobacterial activity against Mycobacterium tuberculosis H37Rv ATCC 27294 after 28 days by agar dilution method; type: functional; conditions: H37Rv ATCC 27294, 672 h
[3] = Growth inhibition of HEK293T cells at 50 ug/ml after 72 hrs by MTT assay; type: cell-based, HEK-293T; conditions: human, read-out: GI

CC(=O)C1=C(O)C=C2Oc3c(C(C)=O)c(O)c(C)c(O)c3C2(C)C1=O (stereo not given)
MIC [1]: 12.5 µg/mL (≈ 36.3 µM)

O=C(/C=C/c1ccc(Br)cc1)Nc1nc(-c2ccc3sc4ccccc4c3c2)cs1
MIC [2]: 6.25 µg/mL (≈ 12.7 µM) | inhibition at 72 h, 50 ug/ml [3]: 28.3%

CC(C)c1ccc(/C=C/C(=O)Nc2nc(-c3ccc4c(c3)c3ccccc3n4C)cs2)cc1
MIC [2]: 50 µg/mL (≈ 111 µM) | inhibition at 72 h, 50 ug/ml [3]: 62%

O=C(/C=C/c1ccc(F)cc1)Nc1nc(-c2ccc3sc4ccccc4c3c2)cs1
MIC [2]: 0.78 µg/mL (≈ 1.81 µM) | inhibition at 72 h, 50 ug/ml [3]: 57.2%

CC(C)c1ccc(/C=C/C(=O)Nc2nc(-c3ccc4oc5ccccc5c4c3)cs2)cc1
MIC [2]: 6.25 µg/mL (≈ 14.3 µM) | inhibition at 72 h, 50 ug/ml [3]: 42.2%

CC(C)c1ccc(/C=C/C(=O)Nc2nc(-c3ccc4sc5ccccc5c4c3)cs2)cc1
MIC [2]: 0.78 µg/mL (≈ 1.72 µM) | inhibition at 72 h, 50 ug/ml [3]: 43.1%

Cc1ccc(/C=C/C(=O)Nc2nc(-c3ccc4c(c3)c3ccccc3n4C)cs2)cc1
MIC [2]: 25 µg/mL (≈ 59 µM) | inhibition at 72 h, 50 ug/ml [3]: 19.4%

Cn1c2ccccc2c2cc(-c3csc(NC(=O)/C=C/c4ccc(F)cc4)n3)ccc21
MIC [2]: 50 µg/mL (≈ 117 µM) | inhibition at 72 h, 50 ug/ml [3]: 23.8%

Cc1ccc(/C=C/C(=O)Nc2nc(-c3ccc4oc5ccccc5c4c3)cs2)cc1
MIC [2]: 50 µg/mL (≈ 122 µM) | inhibition at 72 h, 50 ug/ml [3]: 51.3%

Cc1ccc(/C=C/C(=O)Nc2nc(-c3ccc4sc5ccccc5c4c3)cs2)cc1
MIC [2]: 50 µg/mL (≈ 117 µM) | inhibition at 72 h, 50 ug/ml [3]: 48%

Cn1c2ccccc2c2cc(-c3csc(NC(=O)/C=C/c4ccccc4)n3)ccc21
MIC [2]: 50 µg/mL (≈ 122 µM) | inhibition at 72 h, 50 ug/ml [3]: 14.3%

Cn1c2ccccc2c2cc(-c3csc(N)n3)ccc21
MIC [2]: 12.5 µg/mL (≈ 44.7 µM) | inhibition at 72 h, 50 ug/ml [3]: 38.1%

Nc1nc(-c2ccc3sc4ccccc4c3c2)cs1
MIC [2]: 1.56 µg/mL (≈ 5.52 µM) | inhibition at 72 h, 50 ug/ml [3]: 56.7%

O=C(/C=C/c1ccc(F)cc1)Nc1nc(-c2ccc3oc4ccccc4c3c2)cs1
MIC [2]: 50 µg/mL (≈ 121 µM) | inhibition at 72 h, 50 ug/ml [3]: 36.8%

Cn1c2ccccc2c2cc(-c3csc(NC(=O)/C=C/c4ccc(Br)cc4)n3)ccc21
MIC [2]: 0.78 µg/mL (≈ 1.6 µM) | inhibition at 72 h, 50 ug/ml [3]: 12.1%

O=C(/C=C/c1ccccc1)Nc1nc(-c2ccc3oc4ccccc4c3c2)cs1
MIC [2]: 50 µg/mL (≈ 126 µM) | inhibition at 72 h, 50 ug/ml [3]: 52.6%

O=C(/C=C/c1ccccc1)Nc1nc(-c2ccc3sc4ccccc4c3c2)cs1
MIC [2]: 50 µg/mL (≈ 121 µM) | inhibition at 72 h, 50 ug/ml [3]: 68.6%

Nc1nc(-c2ccc3oc4ccccc4c3c2)cs1
MIC [2]: 1.56 µg/mL (≈ 5.86 µM) | inhibition at 72 h, 50 ug/ml [3]: 48.1%

O=C(/C=C/c1ccc(Br)cc1)Nc1nc(-c2ccc3oc4ccccc4c3c2)cs1
MIC [2]: 12.5 µg/mL (≈ 26.3 µM) | inhibition at 72 h, 50 ug/ml [3]: 68.6%

CC[C@@H](CO)NCCN[C@@H](CC)CO [ETHAMBUTOL]
MIC [2]: 3.13 µg/mL (≈ 15.3 µM)

NNC(=O)c1ccncc1 [ISONIAZID]
MIC [2]: 0.1 µg/mL (≈ 0.729 µM)

NC(=O)c1cnccn1 [PYRAZINAMIDE]
MIC [2]: 50 µg/mL (≈ 406 µM)

— ChEMBL document CHEMBL4219180, “Dibenzofuran, dibenzothiophene and N-methyl carbazole tethered 2-aminothiazoles and their cinnamamides as potent inhibitors of Mycobacterium tuberculosis” (Bioorg Med Chem Lett, 2018)
